# Measured values as given in paper PMC2423185 (BMC Biochemistry, 2008).
# Target: T1, H. pylori arginase (RocF) (Helicobacter pylori, UniProt O25949)
# T1 construct: gene HP_1399
# T1 sequence (O25949 entry or part of it): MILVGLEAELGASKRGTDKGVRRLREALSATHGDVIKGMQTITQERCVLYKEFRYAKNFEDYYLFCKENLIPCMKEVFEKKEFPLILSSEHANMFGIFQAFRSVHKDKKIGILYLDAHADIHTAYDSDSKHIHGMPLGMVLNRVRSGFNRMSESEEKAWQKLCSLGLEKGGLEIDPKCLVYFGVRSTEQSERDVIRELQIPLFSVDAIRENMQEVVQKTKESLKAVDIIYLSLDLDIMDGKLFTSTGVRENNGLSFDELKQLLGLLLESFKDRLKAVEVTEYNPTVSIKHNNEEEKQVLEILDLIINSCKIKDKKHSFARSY
smiles,measurement,value
N=C(N)NCCC[C@H](N)C(=O)O [L-arginine],"L-ornithine formation by acidified ninhydrin, 515 nm","With E. coli (pBS-rocF), optimal arginase activity was with cobalt"
